The text below walks through data of patent US20240409647A1, “BISPECIFIC BINDING PROTEINS AGAINST ALARMINS AND USES THEREOF” (SINOMAB BIOSCIENCE LIMITED, priority 2022, published 2024).

In experiment [1] the target is T1, IL-33 (Homo sapiens, UniProt O95760).
T1 construct: purchased R&D systems
T1 sequence (O95760 95-270): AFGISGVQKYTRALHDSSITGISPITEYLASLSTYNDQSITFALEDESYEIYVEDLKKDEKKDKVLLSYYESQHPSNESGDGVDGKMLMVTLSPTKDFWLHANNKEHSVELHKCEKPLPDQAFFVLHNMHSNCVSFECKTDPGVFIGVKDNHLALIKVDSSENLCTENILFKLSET
The experiment in a line: ELISA, antigen binding specificity of bsBp (IL-33). Also on record: key: −: no binding; +: weak; ++: moderate; +++: strong binding; N/A refers to no binding affinity. As to conditions: 33.5 nM; antigen coated at 2 μg/mL. The procedure: Binding specificities of bsBp were evaluated by standard ELISA assays. Briefly, ELISA strips were coated with the respective target antigens, including IL17RB, IL-33, or TSLP (R&D systems) at a final concentration of 2 μg/mL. Bispecific antibodies were added at 33.5 nM to ELISA strips coated with the desired antigen. After incubation under room temperature for 2 hours, ELISA strips were washed five times with PBS. […] No result is provided for SM17-human TSLPR as the yield was too low to be detected.
In general terms: An ELISA detects its analyte on a solid surface through an enzyme-linked reagent.

The subject of experiment [2] is Human PBMCs. The experiment in a line: CCL8 and IFNγ release from human PBMC incubated with IL-12 and IL-33. The format is cell-based. More on the design: key to Intensity of specific cytokine inhibition, IFNγ / Intensity of specific cytokine inhibition, CCL-8: −: no inhibition; +: weak; ++: moderate; +++: strong inhibition. The procedure: Human PBMCs (4×10^5 per group, Ixcells) were incubated with IL-2 (10 unit/mL, PeproTech) and various alarmin/alarmin combinations to mimic the pro-inflammatory cytokines release during allergic diseases. For IL-5 and IL-13 releases, PBMCs were incubated with IL-2 and three alarmins (all 10 ng/ml) for three days. For CCL17 release, PBMC was incubated with TSLP (10 ng/ml) for 1 day. For CCL8 and IFNγ releases, PBMCs were incubated with IL-12 (10 ng/ml, Sino Biological) and IL-33 (10 ng/ml) for 1 day. Cells were pretreated with SM17 (5 μg/ml) or IgG4 isotype control (5 μg/ml) for an hour before the addition of cytokines.
Supernatants were collected and the cytokine concentration were measured by ELISA kits (R&D systems). These established assays were used to test the potency of and SM17 and bsBps. […] Results were expressed in absolute amount in pg/ml.
SM17, three different SM17-anti-IL33 bsBps and three different SM17-anti-TSLP bsBps (all at 5 μg/ml) were added to human PBMC cultures under conditions that shall induce the release of IFNγ, CCL8, CCL17 and IL-5 as described in Example 11 above. The levels of different cytokines and chemotactic factors in supernatant obtained in induced PBMC were evaluated using standard ELISA methods.

The subject of experiment [3] is wild type HEK293. Put plainly: Flow cytometry, SM17 binding to wild type HEK293. As to conditions: SM17 1 μg/ml. The procedure:
HEK293 cells (ATCC, Manassas, VA) transfected either with full-length human or rhesus monkey IL-17RB (SinoBiological, Beijing, China) were examined for binding to SM17 following standard protocol for flow cytometry. Wild-type HEK293 stained with IgG4 isotype control (Sino Biological) was used as the negative control and for gating purpose. Briefly, HEK293 cells at a density of 3×10^5 cells were seeded into each well of a 6-well plate. On the next day, human or rhesus Il-17RB full length cDNA were first cloned into pCMV3-untagged expression plasmid through standard molecular cloning technique, and then expression plasmids for human or rhesus IL-17RB were transfected into HEK293 cells by lipofection (Lipofectamine 3000 reagent; Thermo Fisher Scientific). Transfected cells were trypsinized, harvested, and fixed with 4% paraformaldehyde (5 minutes). SM17, or human IgG4 control at 1 μg/ml in washing buffer (3% BSA in PBS) were added to the resuspend cells for incubation at RT for 30 min before Alexa Fluor® 647-conjugated goat anti-human IgG specific antibody (1:2000 dilution in washing buffer) (Jackson ImmunoResearch) was added for flow cytometry analysis using the BD FACSVerse cell analyzer (Becton Dickenson, Franklin Lakes, NJ).
For orientation: A flow cytometer gives signals particle by particle.

Experiment [4] relates to Cyno-IL17RB. Put plainly: Bio-Layer Interferometry (Octet), SM17 binding kinetics to cynomolgus IL17RB. More on the design: species or system cynomolgus monkey. As to conditions: trials 1 and 2. The procedure:
Bio-Layer Interferometry analysis (Octet ReD96 system, Sartorius) was employed to determine the binding affinity of SM17 against human and cynomolgus monkey IL17RB protein (R&D systems). Briefly, SM17 (20 μg/mL) was immobilized on biosensors via interactions with anti-human Fab CH1; serially diluted Cyno-IL17RB and Human-IL17RB (at a concentration of 158.7 nM, 79.4 nM and 39.7 nM, respectively) were subsequently added following standard operation protocols of the Octet ReD96 system to plot out the association and dissociation curve. Irrelevant antibody (SM03, anti-human CD22 chimeric IgG1 antibody, SinoMab BioScience Limited) was used as the control reference. Of note, the KD is within picomolar-single digit nanomolar range.
For orientation: Biolayer interferometry detects binding as a change in optical thickness at a sensor tip.

Setting [5] is: SM17 5 μg/ml, IL-12 and IL-33 10 ng/ml, 1 day, vs IgG4 isotype control.

“And” between values parts separate entries of the source, which are not always exact repeats. Identical values can stand only once.

Turning to “SM17: humanized anti-IL17RB monoclonal antibody, human IgG4 isotype; HC SEQ ID NO: 32, LC SEQ ID NO: 33”, the “Intensity of specific antigen binding, IL-33 coated on ELISA strips” value in experiment [1] is recorded as “−”. In experiment [2] (5 μg/ml, human PBMC), the “Intensity of specific cytokine inhibition, CCL-8” value is reported as “−” and the “Intensity of specific cytokine inhibition, IFNγ” value is reported as “−”. In experiment [2] (setting [5]), the “CCL8 release (in words)” value is reported as “no inhibitory effects” and the “IFNγ release (in words)” value is on record as “no inhibitory effects”. Besides, the “binding of SM17 to wild type HEK293” value in experiment [3] is given as about 7%. Besides, in experiment [4], the Ka was 32100 M⁻¹ s⁻¹ and 42100 M⁻¹ s⁻¹; the Kdis was 2.73e-05 s⁻¹ and 0.000215 s⁻¹.
